Reference: ChEMBL document CHEMBL1240438, “Identification of potent virtual leads to design novel indoleamine 2,3-dioxygenase inhibitors: pharmacophore modeling and molecular docking studies” (Eur J Med Chem, 2010)
pIC50: −log10 of the molar value.

molecular target: Indoleamine 2,3-dioxygenase 1 (Homo sapiens, UniProt P14902); assay: Inhibition of 2,3 dioxygenase
Sequence (P14902 whole entry): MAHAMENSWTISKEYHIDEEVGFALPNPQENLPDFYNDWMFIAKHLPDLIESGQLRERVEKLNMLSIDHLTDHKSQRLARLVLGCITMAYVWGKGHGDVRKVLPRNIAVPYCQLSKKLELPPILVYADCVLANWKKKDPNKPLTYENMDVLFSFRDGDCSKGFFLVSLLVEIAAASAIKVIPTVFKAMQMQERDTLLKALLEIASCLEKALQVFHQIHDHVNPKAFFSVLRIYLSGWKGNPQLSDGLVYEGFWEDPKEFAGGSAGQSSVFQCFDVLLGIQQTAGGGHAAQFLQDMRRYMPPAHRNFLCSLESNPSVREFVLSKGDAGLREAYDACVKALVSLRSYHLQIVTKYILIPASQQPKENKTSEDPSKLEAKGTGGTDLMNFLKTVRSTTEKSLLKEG

pIC50 | Compound
5.31 | CC1(C)OC2=C(C(=O)c3ccccc3C2=O)C2OC21 (centres undefined)
6.06 | CC1=C(SCC(NC(=O)CCC(N)C(=O)O)C(=O)NCC(=O)O)C(=O)c2c(O)cccc2C1=O (centres undefined)
6.89 | CCCCNC1C2=C(OC(C)(C)C1O)C(=O)c1ccccc1C2=O (centres undefined)
5.70 | CC1(C)C=CC2=C(O1)C(=O)c1cc(O)ccc1C2=O
